Laboratory results reported in ChEMBL document CHEMBL5365498, “Regulation of Eukaryotic Translation Initiation Factor 4E as a Potential Anticancer Strategy” (J Med Chem, 2023).

How the values were obtained:
[1] = Anticancer activity against Breast carcinoma cell (unknown origin) assessed as cell growth inhibition; type: functional, cell-based
Melanoma tumor cell line = assay: Anticancer activity against Melanoma tumor cell line (unknown origin) assessed as cell growth inhibition; type: functional, cell-based
Lung cancer cell line = assay: Anticancer activity against Lung cancer cell line (unknown origin) assessed as cell growth inhibition; type: functional, cell-based
[2] = Anticancer activity against Cervical carcinoma cell line (unknown origin) assessed as cell growth inhibition; type: functional, cell-based
MCF7 = assay: Anticancer activity against human MCF7 cells assessed as cell growth inhibition measured after 72 hrs by CCK-8 assay; type: functional, cell-based; conditions: MCF7, 72 h
A549 = assay: Anticancer activity against human A549 cells assessed as cell growth inhibition measured after 72 hrs by CCK-8 assay; type: functional, cell-based; conditions: A549, 72 h
[3] = target: Serine/threonine-protein kinase mTOR (Homo sapiens, UniProt P42345); assay: Inhibition of human mTOR (1360 to 2549 residues) measured after 2 hrs in presence of ATP by LANCE Ultra kinase assay

IC50 (Melanoma tumor cell line) [nM]	IC50 (Lung cancer cell line) [nM]	IC50 (MCF7) [nM]	IC50 (A549) [nM]	IC50 [3] [nM]	Compound	IC50 [1] [nM]	IC50 [2] [nM]
20	20	–	–	–	Oc1cccc(-c2nc(N3CCOCC3)c3oc4ncccc4c3n2)c1 [PI-103]	20	20
–	–	600	230	23.2	CNC(=O)Nc1ccc(-c2nc(N3CCOCC3)nc3c2C=NC3C2CCOCC2)cc1 (configuration not stated)	–	–
